Laboratory results: US20090093470A1, “PHOTODYNAMIC THERAPY PROCESS AND PHOTOSENSITIZER COMPOSITIONS THEREFOR” (Ondine International, Ltd., priority 2007, published 2009)

Test system: E. Coli (ATCC 25922)
Assay: Photodynamic disinfection kill models (planktonic culture and biofilm)
Format: cell-based
Conditions: 670 nm laser illumination for 60 seconds
Experimental: A 0.01% (v/v) aqueous solution of methylene blue was reduced substantially entirely to the reduced state using ascorbic acid. […] The formulation was then tested for antibacterial efficacy against E. Coli (ATCC® 25922™) using two established photodynamic disinfection kill models (planktonic culture and biofilm) with a 670 nm laser energy source to provide desired illumination for 60 seconds. […] FIG. 2 is a bar graph showing the eradication of E. coli expressed in log^10 reduction in bacterial counts for the various samples used in the experiment. […]

Structure (SMILES): O=C1O[C@H]([C@@H](O)CO)C(O)=C1O [ascorbic acid]
- reduction in bacterial counts (viable count) of E. coli: did not itself demonstrate any antibacterial effects
